Measurements: article PMC11887385 (Virology Journal, 2025)

Tests used:
HIV-1NL4-3 [1] = experiment: Antiviral activity, TZM-bl reporter cells, F-Luc; type: cell-based
HIV-1NL4-3 [2] = experiment: Time-of-addition; type: cell-based; conditions: TZM-bl, MOI 0.5, read at 48 h
Cell viability test [3] = type: cell-based; conditions: human, TZM-bl cells, CC50 (1:5 dilution)
[4] = test system: HIV-1 7396 (41L/67N/69N/70R/215F); experiment: Antiviral activity on resistant variant, TZM-bl F-Luc; type: cell-based; conditions: Human immunodeficiency virus 1, TZM-bl
[5] = test system: HIV-1 7406 (190C; 41L/69S*/74 V/184 V/210W/215Y); experiment: as above; type: cell-based; conditions: Human immunodeficiency virus 1, TZM-bl
[6] = test system: HIV-1 7407 (103N; 70R/115F); experiment: as above; type: cell-based; conditions: Human immunodeficiency virus 1, TZM-bl
[7] = test system: HIV-1 12,227 (101P/103N; 41L/215Y); experiment: as above; type: cell-based; conditions: Human immunodeficiency virus 1, TZM-bl
[8] = test system: HIV-1 12,231 (103N/179F/181C; 41L/215F); experiment: as above; type: cell-based; conditions: Human immunodeficiency virus 1, TZM-bl
[9] = test system: HIV-1 12,241 (101E/138G/190S); experiment: as above; type: cell-based; conditions: Human immunodeficiency virus 1, TZM-bl
[10] = test system: HIV-1 12,243 (100I/179D/230L; 41L/67G/74I); experiment: as above; type: cell-based; conditions: Human immunodeficiency virus 1, TZM-bl
HIV-1 L100I = experiment: Antiviral activity on single RT mutant, TZM-bl F-Luc; type: cell-based; conditions: Human immunodeficiency virus 1, TZM-bl
HIV-1 K101P = experiment: as above; type: cell-based; conditions: Human immunodeficiency virus 1, TZM-bl
HIV-1 K103N = experiment: as above; type: cell-based; conditions: Human immunodeficiency virus 1, TZM-bl
HIV-1 G190A = experiment: as above; type: cell-based; conditions: Human immunodeficiency virus 1, TZM-bl
HIV-1 G190C = experiment: as above; type: cell-based; conditions: Human immunodeficiency virus 1, TZM-bl
HIV-1 G190S = experiment: as above; type: cell-based; conditions: Human immunodeficiency virus 1, TZM-bl
HIV-1JRCSF [11] = experiment: Antiviral activity, TZM-bl reporter cells, F-Luc; type: cell-based; conditions: Human immunodeficiency virus 1, TZM-bl, read-out: EC50 (1:5 dilution)
HIV-1 89.6 = experiment: Antiviral activity, TZM-bl reporter cells, F-Luc; type: cell-based; conditions: Human immunodeficiency virus 1, TZM-bl, read-out: EC50 (1:5 dilution)
HIV-1NL4-3 [12] = experiment: Viral replication in A3.01 T cells, p24 […]; type: cell-based; conditions: Human immunodeficiency virus 1, NL43, T-cell, read-out: EC50 (1:5 dilution)
HIV-1NL4-3 [13] = experiment: Viral replication in PBMCs, p24 […]; type: cell-based; conditions: Human immunodeficiency virus 1, NL43, PBMC, read-out: EC50 (1:5 dilution)
HIV-1JRCSF [14] = experiment: Viral replication in PBMCs, p24 […]; type: cell-based; conditions: Human immunodeficiency virus 1, PBMC, read-out: EC50 (1:5 dilution)
TZM-bl cells = experiment: Cell viability test; type: cell-based; conditions: 48 h
Cell viability test [15] = type: cell-based, human; conditions: human, A3.01 cells
A3.01 cells = experiment: Cell viability test; type: cell-based, human; conditions: A3.01
Cell viability test [16] = type: cell-based; conditions: human, PBMCs
PBMCs = experiment: Cell viability test; type: cell-based
[17] = test system: HIV-1NL4-3-IRES-GFP proviral DNA; type: cell-based; conditions: HEK293T, 48 h
recombinant HIV-1 RTase = recombinant HIV-1 RTase (Human immunodeficiency virus type 1 group M subtype B, UniProt P04585); experiment: In vitro RTase assay; type: biochemical; conditions: IC50 against RTase, 0.5 unit RTase, 1 h, 24 °C
HIV-1 integrase = HIV-1 integrase (Human immunodeficiency virus type 1 group M subtype B, UniProt P04585); experiment: HIV-1 integrase assay kit; type: biochemical; conditions: 10 µM
[18] = test system: HIV-1NL4-3 early and late RT products; experiment: HIV-1 reverse transcripts in infected A3.01 cells, RT-qPCR; type: cell-based; conditions: A3.01, 1 μM, 6 h
[19] = test system: HIV-1NL4-3 integrated proviral DNA; experiment: Integrated proviral DNA in infected A3.01 cells, Alu-PCR; type: cell-based; conditions: A3.01, 1 μM
[20] = test system: Tat-mediated viral transcription of LTR; experiment: Tat-mediated LTR transcription in bl-DTR cells; type: cell-based, HIV-1; conditions: doxycycline, 24 h
[21] = Human immunodeficiency virus 1, TZM-bl, 48 h
[22] = Human immunodeficiency virus 1, TZM-bl
[23] = Human immunodeficiency virus 1, NL43, TZM-bl, read-out: EC50 (1:5 dilution)

`CCc1cc(=O)oc2cc(OC(CC)C(=O)c3ccccc3)ccc12` (centres unmarked) [compound 2, 4-ethyl-7-((1-oxo-1-phenylbutan-2-yl)oxy)-2H-chromen-2-one] showed an EC50 (HIV-1NL4-3 [1]; [21]) of 4890 nM.
In the case of Enfuvirtide [T20], the “time postinfection of addition at which the inhibitory effect disappeared” value (HIV-1NL4-3 [2]) is reported as 1 h.
`Cc1cc(/C=C/C#N)cc(C)c1Nc1ccnc(Nc2ccc(C#N)cc2)n1` [RPV, rilpivirine] showed an EC50 (HIV-1NL4-3 [1]; [22]) of 0.7 nM.
`Cc1ccnc2c1NC(=O)c1cccnc1N2C1CC1` [NVP, nevirapine] showed an EC50 (HIV-1NL4-3 [1]; [23]) of 80 ± 180 nM, an EC50 (HIV-1NL4-3 [1]; [21]) of 80 ± 20 nM and a CC50 (Cell viability test [3]) of over 50000 nM. The EC50 [4] was 350 ± 70 nM, the EC50 [5] was over 50000 nM and the EC50 [6] was over 50000 nM. The EC50 [7] was over 50000 nM, the EC50 [8] was over 50000 nM and the EC50 [9] was over 50000 nM. For the same compound, the EC50 [10] was 21400 ± 2210 nM, the EC50 (HIV-1 L100I) was 180 ± 40 nM and the EC50 (HIV-1 K101P) was 8310 ± 600 nM. The EC50 (HIV-1 K103N) was 4550 ± 270 nM, the EC50 (HIV-1 G190A) was 15700 ± 2730 nM and the EC50 (HIV-1 G190C) was 23800 ± 3310 nM. The EC50 (HIV-1 G190S) was 32700 ± 4490 nM.
`O=C(Nc1ccc(S(=O)(=O)O)c2ccccc12)c1ccc(=O)oc1` [compound 1, 4-(2-oxo-2H-pyran-5-carboxamido)naphthalene-1-sulfonic acid] gave an EC50 (HIV-1NL4-3 [1]; [21]) of 8480 nM.
Compound `COc1cccc(C=NNC(=S)NN)c1OC` [compound 4, 1-amino-3-[(2,3-dimethoxyphenyl)methylideneamino]thiourea] has an EC50 (HIV-1NL4-3 [1]; [21]) of 6390 nM.
In the case of `C[C@@H]1CCO[C@H]2Cn3cc(C(=O)NCc4ccc(F)cc4F)c(=O)c(O)c3C(=O)N12` [DTG, Dolutegravir], the “time postinfection of addition at which the inhibitory effect disappeared” value (HIV-1NL4-3 [2]) is reported as 8 h.
With `Cc1nnc(C(=O)NC(C)(C)c2nc(C(=O)NCc3ccc(F)cc3)c(O)c(=O)n2C)o1` [RAL, raltegravir] the “time postinfection of addition at which the inhibitory effect disappeared” value (HIV-1NL4-3 [2]) was 8 h.
With `CC(C)[C@]12O[C@H]1[C@@H]1O[C@]13[C@]1(O[C@H]1C[C@H]1C4=C(CC[C@@]13C)C(=O)OC4)[C@@H]2O` [TPL, triptolide] the “time postinfection of addition at which the inhibitory effect disappeared” value (HIV-1NL4-3 [2]) was 24 h.
`CC(C)(C)c1cc([N+](=O)[O-])cc(C=O)c1O` [compound 3, 3-tert-butyl-2-hydroxy-5-nitrobenzaldehyde] gave an EC50 (HIV-1NL4-3 [1]; [21]) of 1470 nM.
`Cc1nn(C(C)c2nnc(Nc3ccn(Cc4ccccc4)n3)s2)c(C)c1Br` (centres unmarked) [BPPT, N-(1-benzyl-1H-pyrazol-3-yl)-5-[1-(4-bromo-3,5-dimethyl-1H-pyrazol-1-yl)ethyl]-1,3,4-thiadiazol-2-amine] gave an EC50 (HIV-1NL4-3 [1]; [22]) of 60 nM, an EC50 (HIV-1JRCSF [11]) of 160 ± 10 nM and an EC50 (HIV-1 89.6) of 90 nM. The EC50 (HIV-1NL4-3 [12]) was 160 ± 20 nM, the EC50 (HIV-1NL4-3 [13]) was 80 ± 10 nM and the EC50 (HIV-1JRCSF [14]) was 40 ± 30 nM. The CC50 (Cell viability test [3]) was over 50000 nM, the “no (severe) cytotoxicity up to” value (TZM-bl cells) was over 250 µM and the CC50 (Cell viability test [15]) was over 50000 nM. The “no cytotoxicity up to” value (A3.01 cells) was over 50 µM, the CC50 (Cell viability test [16]) was over 50000 nM and the “no cytotoxicity up to” value (PBMCs) was over 50 µM. The “GFP signal and level of p24 in the supernatant from transfected cells” value [17] was “not inhibited”, the IC50 (recombinant HIV-1 RTase) was 140 nM and the integrase activity (HIV-1 integrase) was “did not affect”. For the same compound, the “time postinfection of addition at which the inhibitory effect disappeared” value (HIV-1NL4-3 [2]) was 6 h, the “synthesis of viral cDNA, early and late stages of RT” value [18] was “greatly inhibited” and the “integrated proviral DNA” value [19] was “low level of integrated proviral DNA”. For the same compound, the “Tat-mediated viral transcription of LTR” value [20] was “did not inhibit”, the EC50 [5] was 350 ± 40 nM and the EC50 [6] was 19700 ± 1600 nM. For the same compound, the EC50 [7] was over 50000 nM, the EC50 [8] was over 50000 nM and the EC50 [9] was 4570 ± 2300 nM. The EC50 [10] was over 50000 nM, the EC50 (HIV-1 L100I) was 3500 ± 650 nM and the EC50 (HIV-1 K101P) was 1710 ± 30 nM. The EC50 (HIV-1 K103N) was 880 ± 120 nM, the EC50 (HIV-1 G190A) was 70 nM and the EC50 (HIV-1 G190C) was 290 ± 30 nM. It also gave an EC50 (HIV-1 G190S) of 280 ± 50 nM.
With `Cc1cn([C@H]2C[C@H](N=[N+]=[N-])[C@@H](CO)O2)c(=O)[nH]c1=O` [AZT, zidovudine] the EC50 (HIV-1NL4-3 [1]; [21]) was 290 ± 60 nM, the “time postinfection of addition at which the inhibitory effect disappeared” value (HIV-1NL4-3 [2]) was 2 h and the EC50 [4] was 3830 ± 1210 nM. It also gave an EC50 [5] of 15100 ± 2160 nM, an EC50 [6] of over 50000 nM and an EC50 [7] of 1000 ± 130 nM. It also gave an EC50 [8] of 630 ± 190 nM, an EC50 [9] of 80 ± 30 nM and an EC50 [10] of 290 ± 10 nM. It also gave an EC50 (HIV-1 L100I) of 70 ± 10 nM, an EC50 (HIV-1 K101P) of 40 nM and an EC50 (HIV-1 K103N) of 110 ± 10 nM. The EC50 (HIV-1 G190A) was 110 ± 10 nM, the EC50 (HIV-1 G190C) was 50 ± 10 nM and the EC50 (HIV-1 G190S) was 80 ± 10 nM.
`O=C1Nc2ccc(Cl)cc2[C@@](C#CC2CC2)(C(F)(F)F)O1` [EFV, efavirenz] gave an EC50 (HIV-1NL4-3 [1]; [23]) of 1 nM, an EC50 (HIV-1NL4-3 [1]; [21]) of 1 nM and a CC50 (Cell viability test [3]) of 25900 nM. The EC50 [4] was 1 nM, the EC50 [6] was 350 ± 30 nM and the EC50 [8] was 180 ± 220 nM. It also gave an EC50 (HIV-1 L100I) of 20 nM, an EC50 (HIV-1 K101P) of 20 nM and an EC50 (HIV-1 K103N) of 40 ± 10 nM. The EC50 (HIV-1 G190A) was 10 nM, the EC50 (HIV-1 G190C) was 390 ± 90 nM and the EC50 (HIV-1 G190S) was 120 ± 10 nM.
